Results published in patent publication US4108991A, “N-aminosulfenyl derivatives of aldicarb” (priority 1976, dated 1978).

Legend:
[1] = tested on: Pea aphid; assay: Residual (7-day) contact activity, pea aphid; format: in vivo, Acyrthosiphon pisum [Harris]; conditions: Acyrthosiphon pisum, 168 h; for mortality at 156 ppm / mortality at 312 ppm / mortality at 1250 ppm: residual 7-day, PA, read-out: Percent Kill
Description: (§1) Initial Contact Activity: One half gram of test compound was dissolved in 40 ml of acetone and this solution was dispersed in 360 ml of water containing one drop of isooctylphenyl polyethoxyethanol. Aliquots of this solution, which corresponds to 1250 ppm of active ingredient, were diluted with an appropriate amount of water to provide solutions containing various concentrations of active ingredient. Test organisms and techniques were as follows: The activity against the Mexican bean beetle (Epilachna varivestis Muls.) and the southern armyworm (Spodoptera eridania [Cram.]) was evaluated by dipping the leaves of pinto bean plants into the test solution and infesting the leaves with the appropriate immature-form insects when the foiliage had dried; the activity against the pea aphid (Acyrthosiphon pisum [Harris]) was evaluated on broad bean plants whose leaves were dipped before infestation with adult aphids; the activity against two-sotted spider mites (Tetranychus urticae Koch) was evaluated on pinto bean plants whose leaves were dipped after infestation with adult mites; the activity against the milkweed bug (Oncopeltus fasciatus [Dallas]), and the plum curculio (Conotrachelus nenuphar [Herbst]) was evaluated by spraying the test solutions into glass dishes or jars containing the adult insects; the activity against the confused flour beetle (Tribolium confusum duVal) was evaluated by introducing the insects into glass dishes which had been previously sprayed with test solution and allowed to dry. All organisms in the test were maintained in a holding room at 80° F and 50% relative humidity for an exposure period of 48 hours. At the end of this time, the dead and living insects or mites were counted, and the percent kill was calculated.
(§2) Residual Contact Activity: The residual contact activity of the compounds was determined on the same organisms using the techniques described above, except that in each case the treated surface was allowed to dry and was exposed to normal light and air for seven days before introduction of the mites or insects.

[2] = tested on: Mexican bean beetle; assay: Systemic activity, soil-watering, Mexican bean beetle; format: in vivo, Epilachna varivestis Muls.; conditions: Epilachna varivestis, 48 h, systemic, BB, read-out: Percent Kill
Description: as §1
(§3) Systemic Activity: Systemic activity was measured using a soil-watering technique. Test organisms were Mexican bean beetle, southern armyworm, pea aphid, and mites on plants as described above in this Example. With appropriate precautions to avoid contact of the solution with the test plant surfaces, 25 ml of a test solution, prepared as above to contain the desired amount of active ingredient, were poured evenly over the surface of the soil in which the plant was growing. The treated plants were maintained under normal growing conditions for three days to permit translocation of the toxicant, after which the leaves were infested. Two days after infestation, counts of living and dead insects were made.

[3] = tested on: Southern armyworm; assay: Initial contact activity, leaf dip, southern armyworm; format: in vivo, Spodoptera eridania [Cram.]; conditions: Spodoptera eridania, foliar, 48 h, initial, AW, 48 hours, read-out: Percent Kill
Description: as §1

[4] = tested on: Two-spotted spider mite; assay: Residual (7-day) contact activity, two-spotted spider mite; format: in vivo, Tetranychus urticae Koch; conditions: Tetranychus urticae, 168 h
Description: as §1, §2

[5] = tested on: Pea aphid; assay: Initial contact activity, leaf dip, pea aphid; format: in vivo, Acyrthosiphon pisum [Harris]; conditions: Acyrthosiphon pisum, foliar, 48 h, initial, PA, 48 hours, read-out: Percent Kill
Description: as §1

[6] = tested on: Southern armyworm; assay: Residual (7-day) contact activity, southern armyworm; format: in vivo, Spodoptera eridania [Cram.]; conditions: Spodoptera eridania, 168 h; for mortality at 312 ppm / mortality at 1250 ppm: residual 7-day, AW, read-out: Percent Kill
Description: as §1, §2

[7] = tested on: Plum curculio; assay: Residual (7-day) contact activity, plum curculio; format: in vivo, Conotrachelus nenuphar [Herbst]; conditions: Conotrachelus nenuphar, 168 h, read-out: Percent Kill; for mortality at 156 ppm / mortality at 312 ppm / mortality at 1250 ppm: residual 7-day, PC
Description: as §1, §2

[8] = tested on: insects and mites; assay: Systemic activity (soil-watering), insects and mites in general; format: in vivo; conditions: in words
Description: as §3

[9] = residual 7-day, SM, read-out: Percent Kill

SMILES | mortality at 156 ppm [1] [%] | mortality at 312 ppm [1] [%] | mortality at 1250 ppm [1] [%] | mortality at 39 ppm [2] [%] | mortality at 156 ppm [2] [%] | mortality at 156 ppm [3] [%] | mortality at 312 ppm [3] [%] | mortality at 625 ppm [3] [%] | mortality at 1250 ppm [3] [%] | mortality at 156 ppm [4, 9] [%] | mortality at 312 ppm [4, 9] [%] | mortality at 1250 ppm [4, 9] [%] | mortality at 10 ppm [5] [%] | mortality at 39 ppm [5] [%] | mortality at 156 ppm [5] [%] | mortality at 1250 ppm [5] [%] | mortality at 312 ppm [6] [%] | mortality at 1250 ppm [6] [%] | mortality at 156 ppm [7] [%] | mortality at 1250 ppm [7] [%] | also measured
CSC(C)(C)C=NOC(=O)N(C)SN1CCOCC1 [Example II, 2-methyl-2-(methylthio)propanol O-[(N-methyl-N-morpholinosulfenyl)carbamoyl]oxime] | 0 | 0 | 93 | 58 | 100 | 0 | 0 | 70 | 100 | 76 | 93 | 97 | 78 | 100 | 100 | 100 | 64 | 55 | 10 | 37 | mortality at 312 ppm [7]: 5%
CCCCN(CCCC)SN(C)C(=O)ON=CC(C)(C)SC [Example III, 2-methyl-2-(methylthio)propanal O-[(dibutylaminosulfenyl)(methyl)carbamoyl]oxime] | 0 | 0 | 0 | 20 | 100 | 0 | 0 | 0 | 20 | 18 | 45 | 100 | 53 | 19 | 100 | 100 | 0 | 0 | 5 | 5 | mortality at 312 ppm [7]: 9.5%
CSC(C)(C)C=NOC(=O)N(C)SN(C)C [Example IV, 2-Methyl-2-(methylthio)propanal O-[(dimethylaminosulfenyl)-(methyl)carbamoyl]oxime] |  | 10 | 5 | 100 |  | 0 | 0 | 0 | 12 | 52 |  | 100 |  | 5 | 95 | 100 |  | 20 |  | 0 | mortality at 625 ppm ([1]; read-out: Percent Kill, residual 7-day, PA, 625 PPM): 5%; mortality at 312 ppm ([2]; 312 PPM): 100%; mortality at 625 ppm ([4]; read-out: Percent Kill, residual 7-day, SM, 625 PPM): 0%; mortality at 39 ppm ([4]; residual 7-day, SM, 39 PPM, read-out: Percent Kill): 18%; mortality at 20 ppm ([5]; 20 PPM): 0%; mortality at 625 ppm ([6]; read-out: Percent Kill, residual 7-day, AW, 625 PPM): 0%; mortality at 625 ppm [7]: 0%; systemic activity compared with aldicarb [8]: substantially the same as aldicarb
